In the supplement of paper PMC4862054 one finds normalised viability and normalised response data, which are given here for 14 compounds.

Common to all, as to conditions: incubation time: 72 h
Test [1] relates to CAL-148. Put plainly: normalised viability (% of control), CellTiter-Blue; higher = more viable cells (about 100 = DMSO control). The method in brief:
(§1)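 Breast cancer cell lines in 20 µl suspension were seeded onto 384-well plates pre-loaded with compound dissolved in 5 µl medium, then incubated 72 h. CellTiter-Blue reagent (2.5 µl) was added for 2 h at 37 °C and fluorescence read at 560/590 nm. Each plate was normalised to vehicle (100) and a positive kill control (0), with Z'-factor quality control. The value is normalised viability at one listed concentration of the series.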
For orientation: The colour change of resazurin is a common sign of viable cells or microbes.

The subject of test [2] is DU-4475. The description is as above. A digest of the protocol:
as §1

Test [3] deals with HDQ-P1. The test is described as above. The method in brief:
as §1

The test system of the next test is BT-474. Put plainly: normalised response (% of control), CellTiter-Glo; higher = more viable cells (100 = DMSO, 0 = benzethonium chloride kill control). The method, then: (§2)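 DSRT, 72 h incubation, CellTox Green / CellTiter-Glo readout. Signal is normalised to DMSO and benzethonium chloride controls. Value is the normalised response at the highest dose.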
(In general: Cellular ATP, detected with luciferase, serves as a proxy for viable cell number.)

The next test has as its system BT-549. The test is described as above. The procedure:
as §2

For a further test, the system named is CAL-120. Described as above. The method, then:
as §2

Test [4] relates to CAL-148. The description is as above. The method, then:
as §2

The subject of another test is CAL-51. The description is as above. The procedure: as §2
For a further test, the system named is CAL-85-1. Described as above. The method, then: as §2
In test [5] the test system is DU-4475. The description is as above. The procedure:
as §2

Test [6] has as its system HCC1143. The test is described as above. The method, then:
as §2

Another test has as its system HCC1599. The test is described as above. The method, then: as §2
The next test concerns HCC1937. The test is described as above. The procedure:
as §2

Test [7] has as its system HDQ-P1. The description is as above. The procedure:
as §2

In another test the test system is Hs578T. The test is described as above. The method, then:
as §2

Another test concerns MCF-10A. The description is as above. The procedure:
as §2

The test system of a further test is MDA-MB-231. The test is described as above. The method, then:
as §2

Another test relates to MDA-MB-436. The description is as above. The method, then: as §2
The next test relates to MDA-MB-453. Described as above. The procedure: as §2
The next test has as its system MDA-MB-468. The description is as above. The procedure:
as §2

A further test deals with MFM-223. The description is as above. The method, then:
as §2

The subject of a further test is SK-BR-3. The test is described as above. The method, then: as §2
For test [8], the system named is HCC1143. Put plainly: normalised response (% of control), CellTiter-Glo; higher = more viable cells (100 = DMSO, 0 = benzethonium chloride kill control). A digest of the protocol: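 Each entry is the normalised signal at a single concentration within a series. The series comprised 5 concentrations in 10-fold steps over a compound-specific 10,000-fold range, placed in 384-well plates into which breast cancer cell lines were seeded as 20 µl suspension and incubated 72 h. CellTox Green (485/520 nm) fluorescence and then CellTiter-Glo luminescence were read, with signals normalised per plate to 0.1 % DMSO (100) and a positive kill control (0).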
This is another data set of the same source.

For the compound `O=P1(N(CCCl)CCCl)NCCCO1` (stereo not drawn) [Cyclophosphamide] (40000 nM), the results for the normalised viability with CAL-148 [1], in the test on DU-4475 [2] and in the test on HDQ-P1 [3] were 110%, 94.4% and 120%, respectively. Further, the normalised response in the test on BT-474 amounted to 92.8%; in the test on BT-549, 100%; in the test with CAL-120, 94.4%; with CAL-148 [4], 101%; with CAL-51 it was 131%; in the test on CAL-85-1, 98.8%. Also, the normalised response came to 102% in the test on DU-4475 [5]; 105% with HCC1143 [6]; 92.9% with HCC1599; 95.8% in the test with HCC1937; 96.8% with HDQ-P1 [7]; 106% in the test with Hs578T. For the same compound, the normalised response came to 109% in the test with MCF-10A; 99.9% in the test on MDA-MB-231; 96.3% with MDA-MB-436; 101% in the test with MDA-MB-453; 93.2% in the test with MDA-MB-468; 108% in the test with MFM-223. Besides, in the test with SK-BR-3, the normalised response stood at 108%.
For the compound `CN(C)c1nc(N(C)C)nc(N(C)C)n1` [Altretamine] (10000 nM), the normalised viability in the test on CAL-148 [1] stood at 63.4%; in the test with DU-4475 [2], 94.7%; in the test on HDQ-P1 [3], 111%. The normalised response with BT-474 was determined as 98.7%; with BT-549 it was 102%; in the test on CAL-120 it was 100%; with CAL-148 [4], 106%; in the test on CAL-51 it was 109%; in the test on CAL-85-1, 108%. Besides, the normalised response with DU-4475 [5] stood at 107%; in the test on HCC1143 [6], 100%; in the test with HCC1599, 112%; in the test with HCC1937 it was 100%; with HDQ-P1 [7] it was 97.8%; in the test with Hs578T it was 105%. In addition, the normalised response in the test with MCF-10A was 107%; in the test with MDA-MB-231, 102%; in the test on MDA-MB-436 it was 107%; in the test on MDA-MB-453, 108%; in the test with MDA-MB-468, 104%; in the test on MFM-223, 106%. In the test with SK-BR-3, this compound showed a normalised response of 108%.
In the case of `Cc1ccc(NC(=O)c2ccc(CN3CCN(C)CC3)cc2)cc1Nc1nc(-c2cccnc2)cs1` [Masitinib] (10000 nM), the normalised viability in the test with CAL-148 [1] worked out at 74.5%; with DU-4475 [2], 119%; in the test with HDQ-P1 [3], 67.6%. Also, the normalised response with BT-474 amounted to 33.2%; in the test on BT-549 it was 59.5%; in the test with CAL-120 it was 80.8%; in the test on CAL-148 [4], 97.7%; in the test with CAL-51, 59.1%; in the test on CAL-85-1, 64.4%. The normalised response in the test with DU-4475 [5] turned out to be 99.4%; in the test on HCC1143 [6] it was 80.5%; with HCC1599, 49.6%; with HCC1937 it was 65%; in the test on HDQ-P1 [7], 75.5%; with Hs578T it was 96.6%. The normalised response came to 91.6% in the test on MCF-10A; 51.5% in the test with MDA-MB-231; 51.7% in the test on MDA-MB-436; 55.6% in the test with MDA-MB-453; 36.6% in the test with MDA-MB-468; 73% with MFM-223. This compound registered a normalised response in the test with SK-BR-3 of 31.8%.
`CC(C)C[C@@H](C(=O)N[C@H](C(=O)OC1CCCC1)c1ccccc1)[C@H](O)C(=O)NO` [Tosedostat] (1000 nM): in the test with HCC1143 [8], the normalised response turned out to be 69%.
On the same count and under the same terms, for `O=C(Nc1cccnc1)N1CCC(Cc2cccc(Oc3ccc(C(F)(F)F)cn3)c2)CC1` [PF-3845] (1000 nM) the value was 106%; for `O=P1(N(CCCl)CCCl)NCCCO1` (stereo not drawn) [Cyclophosphamide] (4000 nM), 104%; for `c1ccc2c(CCNc3ccc(Nc4ccncc4)cc3)c[nH]c2c1` [Serdemetan] (1000 nM), 83.8%.
Turning to `O=C(Nc1ccncc1)C(=O)c1cn(Cc2ccc(Cl)cc2)c2ccccc12` [Indibulin] (1000 nM), the normalised response in the test with HCC1143 [8] came out at 67.2%.
`CN(C)CCOc1ccc(/C(=C(/CCCl)c2ccccc2)c2ccccc2)cc1` [Toremifene] (1000 nM) came in with a normalised response with HCC1143 [8] of 96.3%.
For the compound `CO[C@H]1C[C@@H]2CC[C@@H](C)[C@@](O)(O2)C(=O)C(=O)N2CCCC[C@H]2C(=O)O[C@H]([C@H](C)C[C@@H]2CC[C@@H](OP(C)(C)=O)[C@H](OC)C2)CC(=O)[C@H](C)/C=C(\C)[C@@H](O)[C@@H](OC)C(=O)[C@H](C)C[C@H](C)/C=C/C=C/C=C/1C` [Ridaforolimus] (100 nM), the normalised response came out at 81.5% with BT-474; 54.8% with BT-549; 64.8% in the test on CAL-120; 58.8% in the test with CAL-148 [4]; 62% in the test with CAL-51; 66.8% in the test with CAL-85-1. Besides, the normalised response with DU-4475 [5] is 72.8%; in the test with HCC1143 [6] it was 67.1%; with HCC1599, 108%; in the test with HCC1937, 69.3%; with HDQ-P1 [7] it was 79%; with Hs578T it was 69.6%. Moreover, the normalised response is 85.1% in the test on MCF-10A; 88.4% in the test on MDA-MB-231; 82.5% with MDA-MB-436; 62.8% with MDA-MB-453; 56.7% in the test with MDA-MB-468; 68.3% with MFM-223. In addition, in the test with SK-BR-3, the normalised response turned out to be 56.9%.
For the compound `COc1cc2/c(=N/c3ccc(Br)cc3F)nc[nH]c2cc1OCC1CCN(C)CC1` [Vandetanib] (1000 nM), the normalised response was 79.3% in the test with BT-474; 95% with BT-549; 89.6% with CAL-120; 78.9% in the test with CAL-148 [4]; 99.1% with CAL-51; 58.9% with CAL-85-1. Further, the normalised response is 87.8% in the test on DU-4475 [5]; 86.4% with HCC1143 [6]; 76.2% with HCC1599; 78% in the test with HCC1937; 56.3% in the test with HDQ-P1 [7]; 91.7% in the test on Hs578T. The normalised response with MCF-10A was 27.1%; in the test with MDA-MB-231 it was 79.1%; with MDA-MB-436, 86%; with MDA-MB-453, 74.5%; in the test on MDA-MB-468, 69.9%; with MFM-223, 64.9%. In the test on SK-BR-3, this compound gave a normalised response of 74.3%.
In the test with HCC1143 [8], `N#Cc1ccc(COC[C@H]2O[C@@H](n3c(NCc4ccc(Cl)c(Cl)c4)nc4c(N)ncnc43)[C@H](O)[C@@H]2O)cc1` (1000 nM) had a normalised response of 97.2%.
`COCC[n+]1c2c(n(Cc3cnccn3)c1C)C(=O)c1ccccc1C2=O` [YM155] (1000 nM) had a normalised response in the test with HCC1143 [8] of 0.6%.
Still for that read-out and setting: for `Cc1[nH]c2ccccc2c1CCNCc1ccc(/C=C/C(=O)NO)cc1` [Panobinostat] (100 nM) the value was 26.3%.
